The structures appear in SMILES notation. Numbers after ± are expanded uncertainties.

Drawing on the NIST ThermoML archive (doi:10.1016/j.tca.2006.04.022), this text covers Glass transition temperature for 1 compound.

The conditions of this series: Adiabatic calorimetry.

Take `CCOS(=O)(=O)[O-].CCn1cc[n+](C)c1` [1-ethyl-3-methylimidazolium ethyl sulfate]: the Glass transition temperature is -80.30 ± 0.05 °C.
